According to patent US8377894B2, “Drug and food or drink for improving pancreatic functions” (Morinaga Milk Industry Co., Ltd., priority 2005, dated 2013):
Where two headings read alike, the source gives them in different places.

Legend:
db/db mice [1] = experiment: Pancreatic tissue protecting action: number and maximum area of Langerhans islets in pancreatic sections of db/db mice, Test Example 2; format: in vivo; details: for Maximum area of Langerhans islets relative to that observed in the negative test / Number of Langerhans islets relative to negative sample-administered mice: 1 μg, 43rd day of continuous administration; for The numbers of Langerhans islets in sections on 43rd day of administration / Maximum area of Langerhans islets on administration: male db/db mice, 1 μg orally once a day for 42 days; for The numbers of Langerhans islets in sections on 43rd day of administration: hematoxylin-eosin stained pancreatic sections; for Maximum area of Langerhans islets on administration: pancreatic sections
Procedure: The final DMSO concentration was adjusted to 0.2%. […] On the 43rd day of the continuous administration, the pancreas was extracted, divided into three portions of upstream, midstream and downstream from the duodenum side, and fixed with a formalin solution, and then paraffin blocks were prepared in a conventional manner. Section slides were prepared from the paraffin blocks, and subjected to hematoxylin-eosin staining. The numbers of Langerhans islets existing on the sections of the 3 position of the pancreas, and area of Langerhans islet having the maximum area on each section were measured by using an ocular micrometer on a microscope (“ECLIPSE E600”, NIKON CORP.).

db/db mice [2] = details: for Pancreatic function protecting effect: 0.1 μg/animal; for Pancreatic function protecting effect / Serum insulin level relative to that observed in the negative test: 43rd day of continuous administration; for Serum insulin level relative to that observed in the negative test: 1 μg/animal; for Serum insulin levels on 43rd day of administration: male db/db mice, ELISA
Procedure: This test was performed in order to evaluate the pancreatic endocrine gland cell function (insulin production ability) protecting action of a compound having the cyclolanostane skeleton by using db/db mice known as a model animal of pancreatic hypofunction or pancreatic tissue dysfunction.
In this test, 6-week old male db/db mice (purchased from Clea Japan, Inc.) were used. These mice were divided into groups, each consisting of 7 animals. Each test sample was dissolved in DMSO, and the concentration was adjusted to 0.1 or 1 μg/mL with physiological saline. The final DMSO concentration was adjusted to 0.2%. The pancreatic disorder model mice were orally administered with 1 mL of the test sample once a day everyday for 42 days with a sonde. The serum insulin level was measured on the 43rd day of the continuous administration by using Lbis insulin mouse ELISA kit (Shibayagi Co., Ltd).

[3] = 0.1 μg/animal orally once a day for 42 days
[4] = 1 μg/animal orally once a day for 42 days

Row | Structure (SMILES) | Maximum area of Langerhans islets relative to that observed in the negative test (db/db mice [1]) | Number of Langerhans islets relative to negative sample-administered mice (db/db mice [1]) | The numbers of Langerhans islets in sections on 43rd day of administration (db/db mice [1]) | Maximum area of Langerhans islets on administration (db/db mice [1]) | Pancreatic function protecting effect (db/db mice [2]) | Serum insulin level relative to that observed in the negative test (db/db mice [2]) | Serum insulin levels on 43rd day of administration (db/db mice [2]; [3]) | Serum insulin levels on 43rd day of administration (db/db mice [2]; [4])
1 | CC(C)CCCC(C)C1CCC2(C)C3CCC4C(C)(C)C(O)CCC45CC35CCC12C (stereo not shown) [Test sample 1, 9,19-cyclolanostan-3-ol] | 1.8 times | 149% | 60.0 ± 14.8 piece | 78.6 ± 3.3 × 10^3 μm^2 | any significant pancreatic function protecting effect was not observed | 160% | 1.74 ± 0.26 ng/mL | 3.19 ± 0.78 ng/mL
2 | C=C(CCC(C)C1CCC2(C)C3CCC4C(C)(C)C(O)CCC45CC35CCC12C)C(C)C (stereo not shown) [Test sample 2, 24-methylene-9,19-cyclolanostan-3-ol] | 3.1 times | 148% | 59.6 ± 11.6 piece | 140.0 ± 102.8 × 10^3 μm^2 | any significant pancreatic function protecting effect was not observed | 170% | 1.94 ± 0.56 ng/mL | 3.39 ± 1.35 ng/mL
